{"source": "patent US20250276036A1", "about": "“COMPOSITION FOR THE INHIBITION OF NRF2 AND USES THEREOF IN CANCER THERAPY” (Sunshine Biopharma Inc., priority 2022, published 2025)", "key": {"[1]": {"system": "OVCAR3 epithelial cells", "assay": "Cell viability (CellTiter-Glo) after mRNA transfection, OVCAR3", "assay_type": "cell-based, human", "method": "(§1) The synthetic mRNA produced in Example 1 is transfected in cancer cells using the Lipofectamine MessengerMAX™ Transfection Reagent.\n(§2) OVCAR3 epithelial cells isolated from malignant ascites of a patient with progressive adenocarcinoma of the ovary, and SUIT2 human pancreatic cancer cell lines are transfected for […] with 0, 0.3, 1, 3 and 9 ng of KEAP1 mRNA, or with 0, 0.3, 1, 3 and 9 ng of a control Cypridina luciferase (cLUC)(SEQ ID NO: 10) mRNA, per 1000 cells. The cells viability was measured using the CellTiter-Glo® assay from Promega®. In-cell Western analysis is used to detect the presence of KEAP1."}, "[2]": {"system": "Human Mammary Epithelial Cells (HMEC)", "assay": "Cell viability (CellTiter-Glo) after mRNA transfection, HMEC", "assay_type": "cell-based", "details": "HMEC, 0, 3 and 9 ng mRNA per 1000 cells, 48 hours transfection", "method": "as §1\n(§3) Human Mammary Epithelial Cells (HMEC), which are non-cancer cells were compared to MCF7 cancer cells. The HMEC cells and MCF7 cancer cells were transfected for 48 hours with 0, 0.3, 1, 3 and 9 ng of KEAP1 mRNA, or a control cLUC mRNA, per 1000 cells and their respective survival were compared. The cells viability was measured using the CellTiter-Glo® assay from Promega®. […] Now referring to FIG. 4, cell viability of MCF7 cells was affected by KEAP1 mRNA, but the viability of the HMEC cells was unaffected by KEAP1 mRNA."}, "[3]": {"system": "SUIT2 human pancreatic cancer cell line", "assay": "Cell viability (CellTiter-Glo) after mRNA transfection, SUIT2", "assay_type": "cell-based", "details": "SUIT2, 0, 3 and 9 ng mRNA per 1000 cells", "method": "as §1, §2"}, "[4]": {"system": "MCF7/MDR human breast adenocarcinoma cell line", "assay": "Cell viability (CellTiter-Glo) after mRNA transfection, MCF7/MDR", "assay_type": "cell-based", "details": "for % Cell survival: MCF7/MDR, 48 hours transfection (Example 3)", "method": "(§4) The goal of these experiments is to evaluate the transfectability of various cell lines, as well as evaluate the role of KEAP1 as a tumor cells sensitizer, evaluate its role in decreasing the viability of tumor cells. The synthetic mRNA produced in Example 1, or the cLUC mRNA are transfected in cancer cells using the Lipofectamine MessengerMAX™ Transfection Reagent, ThermoFisher™, Cat No: LMRNA001. 0, 0.3, 1, 3 or 9 ng of either mRNA is used per 1000 cells.\n(§5) MCF7 and MCF7/MDR human breast adenocarcinoma cell lines are transfected for 48 hours with 0, 0.3, 1, 3 and 9 ng of KEAP1 mRNA, or with 0, 0.3, 1, 3 and 9 ng of a control Cypridina luciferase (cLUC) (SEQ ID NO: 10) mRNA. The cells viability was measured using the CellTiter-Glo® assay from Promega®. KEAP1 mRNA specific effects on MCF7 and MCF7/MDR cells survival were observed when cells were transfected with 0, 0.3, 1, 3 and 9 ng of KEAP1 mRNA.\n(§6) MCF7 and MCF7/MDR human breast adenocarcinoma cell lines are transfected for 48 hours with 0, 1 and 3 ng of KEAP1 mRNA, or with 0, 1 and 3 ng of a control Cypridina luciferase (cLUC) mRNA, per 1000 cells. The cells viability was measured using the CellTiter-Glo® assay from Promega®. In-cell Western analysis is used to detect the presence of KEAP1."}, "[5]": {"system": "MCF7 human breast adenocarcinoma cell line", "assay": "Cell viability (CellTiter-Glo) after mRNA transfection, MCF7", "assay_type": "cell-based", "method": "as §4, §5, §6, §3"}}}
{"substance": "cLUC mRNA: control Cypridina luciferase (cLUC) (SEQ ID NO: 10) mRNA", "values": [{"measurement": "% Cell survival", "setting": "[1]; OVCAR3, 3 ng mRNA per 1000 cells", "value": 90, "unit": "%"}, {"measurement": "% Cell survival", "setting": "[1]; OVCAR3, 9 ng mRNA per 1000 cells", "value": 80, "unit": "%"}, {"measurement": "% Cell survival", "setting": "[2]", "value": "Resistant"}, {"measurement": "% Cell survival", "setting": "[3]", "value": "Resistant"}, {"measurement": "effect on cell survival / viability", "setting": "[4]; MCF7/MDR, 0, 0.3, 1, 3 and 9 ng mRNA per 1000 cells, 48 hours (FIG. 2)", "value": "little effect on cell survival unless a large amount of 9 ng was transfected"}, {"measurement": "% Cell survival", "setting": "[4]; 1 ng mRNA per 1000 cells", "value": 100, "unit": "%"}, {"measurement": "% Cell survival", "setting": "[4]; 3 ng mRNA per 1000 cells", "value": 55, "unit": "%"}, {"measurement": "effect on cell survival / viability", "setting": "[5]; MCF7, 0, 0.3, 1, 3 and 9 ng mRNA per 1000 cells, 48 hours (FIG. 2)", "value": "little effect on cell survival unless a large amount of 9 ng was transfected"}, {"measurement": "% Cell survival", "setting": "[5]; MCF7, 1 ng mRNA per 1000 cells, 48 hours transfection (Example 3)", "value": 100, "unit": "%"}, {"measurement": "% Cell survival", "setting": "[5]; MCF7, 3 ng mRNA per 1000 cells, 48 hours transfection (Example 3)", "value": 55, "unit": "%"}, {"measurement": "% Cell survival", "setting": "[5]; MCF7, 3 ng mRNA per 1000 cells, 48 hours transfection (Example 4, Table 2)", "value": 100, "unit": "%"}, {"measurement": "% Cell survival", "setting": "[5]; MCF7, 9 ng mRNA per 1000 cells, 48 hours transfection (Example 4, Table 2)", "value": 55, "unit": "%"}]}
